Read-outs that look alike come from different tables or passages of the source.
How the values were obtained:
[1] = test system: MLKL phosphorylation in HT29-L23 human colorectal adenocarcinoma cells; test: MLKL Phosphorylation High-Content Assay; assay type: cell-based; details: Homo sapiens
Outline: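 IC50 and Ymax obtained by 4-parameter logistic fitting of MLKL phosphorylation, measured as mean circ-ring average intensity ratio from high-content images. Staining used an anti-phospho-S358 MLKL antibody overnight at 4° C., following six-hour cell incubation at 37° C.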

[2] = target: T1, His-GST-TVMV-hRIPK1(1-324) (Homo sapiens, UniProt Q13546); test: RIPK1 HTRF Binding Assay
T1 construct: The coding region of human RIPK1(1-324) flanked by NdeI site at 5′ end; made in house; host or cells: Spodoptera frugiperda (Sf9) insect cells, baculovirus
T1 sequence (Q13546 1-324): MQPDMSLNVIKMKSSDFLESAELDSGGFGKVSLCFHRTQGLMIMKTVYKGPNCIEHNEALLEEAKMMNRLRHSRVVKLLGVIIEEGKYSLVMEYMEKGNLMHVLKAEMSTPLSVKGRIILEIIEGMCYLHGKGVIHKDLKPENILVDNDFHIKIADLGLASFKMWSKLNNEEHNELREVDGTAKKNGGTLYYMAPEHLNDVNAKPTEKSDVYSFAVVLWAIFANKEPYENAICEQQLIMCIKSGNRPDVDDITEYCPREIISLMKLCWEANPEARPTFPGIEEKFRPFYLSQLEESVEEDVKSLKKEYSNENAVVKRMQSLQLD

[3] = x marks IC50 class 20-200 nM, read-out: pMLKL cell activity 20-200 nM
[4] = x marks IC50 class 20-200 nM, read-out: RIPK1 HTRF binding 20-200 nM
[5] = x marks IC50 class >200 nM, read-out: pMLKL cell activity >200 nM
[6] = x marks IC50 class <20 nM, read-out: RIPK1 HTRF binding <20 nM
[7] = x marks IC50 class <20 nM, read-out: pMLKL cell activity <20 nM

With Nc1nc2cc(-c3cc(C(=O)Nc4cnn(Cc5ccccc5)c4)c4cc(F)ccc4n3)ccn2n1 [Example 68, 2-{2-Amino-[1,2,4]triazolo[1,5-a]pyridin-7-yl}-N-(1-benzyl-1H-pyrazol-4-yl)-6-fluoroquinoline-4-carboxamide] the IC50 [1, 3] was 20 to 200 nM and the IC50 [2, 4] was 20 to 200 nM.
Cc1nc(C)c(-c2ccn3nc(N)nc3c2)cc1C(=O)NCc1ccccc1OCC(F)(F)F [Example 294, 5-(2-amino-[1,2,4]triazolo[1,5-a]pyridin-7-yl)-2,6-dimethyl-N-(2-(2,2,2-trifluoroethoxy)benzyl)nicotinamide] gave an IC50 [1, 5] greater than 200 nM and an IC50 [2, 4] of 20 to 200 nM.
In the case of Cc1nc(C)c(-c2ccn3nc(N)nc3c2)cc1C(=O)NCc1cccnc1OCC1CCCC1 [Example 183], the IC50 [1, 3] is reported as 20 to 200 nM and the IC50 [2, 4] is reported as 20 to 200 nM.
For COc1ncc(-c2ccn3nc(N)nc3c2)cc1C(=O)Nc1cnn(C(c2ccccc2)c2ccccc2)c1 [Example 107, 5-{2-amino-[1,2,4]triazolo[1,5-a]pyridin-7-yl}-N-[1-(diphenylmethyl)-1H-pyrazol-4-yl]-2-methoxypyridine-3-carboxamide], the IC50 [1, 5] was greater than 200 nM and the IC50 [2, 4] was 20 to 200 nM.
C[C@H](NC(=O)c1cnc(Cl)c(-c2ccn3nc(N)nc3c2)c1)c1cc(OC(F)(F)F)ccc1F [Example 371, (S)-5-(2-amino-[1,2,4]triazolo[1,5-a]pyridin-7-yl)-6-chloro-N-(1-(2-fluoro-5-(trifluoromethoxy)phenyl)ethyl)nicotinamide] gave an IC50 [1, 3] of 20 to 200 nM and an IC50 [2, 6] of less than 20 nM.
For COc1nc(C)c(-c2ccn3nc(N)nc3c2)cc1C(=O)NCc1cc(F)cc(F)c1O[C@@H]1CCOC1 [Example 354, (R)-5-(2-amino-[1,2,4]triazolo[1,5-a]pyridin-7-yl)-N-(3,5-difluoro-2-((tetrahydrofuran-3-yl)oxy)benzyl)-2-methoxy-6-methylnicotinamide], the IC50 [1, 3] was 20 to 200 nM and the IC50 [2, 6] was less than 20 nM.
With Cc1ncc(-c2ccn3nc(N)nc3c2)cc1C(=O)NCc1cc(C(F)(F)F)ccc1F [Example 226, 5-{2-amino-[1,2,4]triazolo[1,5-a]pyridin-7-yl}-N-{[2-fluoro-5-(trifluoromethyl)phenyl]methyl}-2-methylpyridine-3-carboxamide] the IC50 [1, 3] was 20 to 200 nM and the IC50 [2, 4] was 20 to 200 nM.
Work on COc1ncc(-c2ccn3nc(N)nc3c2)cc1C(=O)NCc1cc(F)cc(F)c1OC1COC1 [Example 364, 5-(2-amino-[1,2,4]triazolo[1,5-a]pyridin-7-yl)-N-(3,5-difluoro-2-(oxetan-3-yloxy)benzyl)-2-methoxynicotinamide] yielded an IC50 [1, 3] of 20 to 200 nM and an IC50 [2, 6] of less than 20 nM.
In the case of COc1ncc(-c2ccn3nc(N)nc3c2)cc1C(=O)N1CCOC(c2ccccc2)C1 (stereo not drawn) [Example 425], the IC50 [1, 5] is reported as greater than 200 nM and the IC50 ([2]; x marks IC50 class >200 nM, read-out: RIPK1 HTRF binding >200 nM) is reported as greater than 200 nM.
Work on Cc1cnc(-c2ccn3nc(N)nc3c2)nc1C(=O)N[C@H](C)c1cc(C(F)(F)F)ccc1F [Example 409, (R)-2-(2-amino-[1,2,4]triazolo[1,5-a]pyridin-7-yl)-N-(1-(2-fluoro-5-(trifluoromethyl)phenyl)ethyl)-5-methylpyrimidine-4-carboxamide] yielded an IC50 [1, 3] of 20 to 200 nM and an IC50 [2, 4] of 20 to 200 nM.
COc1ncc(-c2ccn3nc(N)nc3c2)cc1C(=O)NCc1cc(F)ccc1C(=O)N1CCC(F)(F)C1 [Example 376, 5-(2-amino-[1,2,4]triazolo[1,5-a]pyridin-7-yl)-N-(2-(3,3-difluoropyrrolidine-1-carbonyl)-5-fluorobenzyl)-2-methoxynicotinamide] gave an IC50 [1, 7] of less than 20 nM and an IC50 [2, 6] of less than 20 nM.
In the case of COc1nc(C)c(-c2ccn3nc(N)nc3c2)cc1C(=O)NCc1cccc(OC(F)F)c1 [Example 204, 5-{2-amino-[1,2,4]triazolo[1,5-a]pyridin-7-yl}-N-{[3-(difluoromethoxy)phenyl]methyl}-2-methoxy-6-methylpyridine-3-carboxamide], the IC50 [1, 5] is reported as greater than 200 nM and the IC50 [2, 4] is reported as 20 to 200 nM.
For Cc1ncc(C(=O)NCc2ncccc2OC2CCCC2)cc1-c1ccn2nc(N)nc2c1 [Example 17, 5-{2-Amino-[1,2,4]triazolo[1,5-a]pyridin-7-yl}-N-{[3-(cyclopentyloxy)pyridin-2-yl]methyl}-6-methylpyridine-3-carboxamide], the IC50 [1, 3] was 20 to 200 nM and the IC50 [2, 6] was less than 20 nM.
For COc1ncc(-c2ccn3nc(N)nc3c2)cc1C(=O)NCc1cc(F)ccc1OCC1CCCC1 [Example 129, 5-{2-amino-[1,2,4]triazolo[1,5-a]pyridin-7-yl}-N-{[2-(cyclopentylmethoxy)-5-fluorophenyl]methyl}-2-methoxypyridine-3-carboxamide], the IC50 [1, 3] was 20 to 200 nM and the IC50 [2, 6] was less than 20 nM.
COc1nc(C)c(-c2ccn3nc(N)nc3c2)cc1C(=O)NCc1ncccc1OC1CCCC1 [Example 213, 5-{2-amino-[1,2,4]triazolo[1,5-a]pyridin-7-yl}-N-{[3-(cyclopentyloxy)pyridin-2-yl]methyl}-2-methoxy-6-methylpyridine-3-carboxamide] gave an IC50 [1, 7] of less than 20 nM and an IC50 [2, 6] of less than 20 nM.
Work on COc1nc(C)c(-c2ccn3nc(N)nc3c2)cc1C(=O)NCc1cc(F)cc(F)c1O[C@H]1CCOC1 [Example 351, (S)-5-(2-amino-[1,2,4]triazolo[1,5-a]pyridin-7-yl)-N-(3,5-difluoro-2-((tetrahydrofuran-3-yl)oxy)benzyl)-2-methoxy-6-methylnicotinamide] yielded an IC50 [1, 7] of less than 20 nM and an IC50 [2, 6] of less than 20 nM.
COc1ncc(-c2ccn3nc(N)nc3c2)cc1C(=O)NCc1cccc(OCC2CC2)c1 [Example 47, 5-{2-Amino-[1,2,4]triazolo[1,5-a]pyridin-7-yl}-N-{[3-(cyclopropylmethoxy)phenyl]methyl}-2-methoxypyridine-3-carboxamide] was tested, and the IC50 [1, 5] was greater than 200 nM and the IC50 [2, 4] was 20 to 200 nM.
COc1ncc(-c2ccn3nc(N)nc3c2)cc1NC(=O)Cc1cccc(OC(F)(F)F)c1 [Example 415, N-(5-(2-amino-[1,2,4]triazolo[1,5-a]pyridin-7-yl)-2-methoxypyridin-3-yl)-2-(3-(trifluoromethoxy)phenyl)acetamide] showed an IC50 [1, 3] of 20 to 200 nM and an IC50 [2, 4] of 20 to 200 nM.
In the case of Cc1ncc(-c2ccn3nc(N)nc3c2)cc1C(=O)NCc1ccccc1OC1CCCCC1 [Example 239, 5-{2-amino-[1,2,4]triazolo[1,5-a]pyridin-7-yl}-N-{[2-(cyclohexyloxy)phenyl]methyl}-2-methylpyridine-3-carboxamide], the IC50 [1, 7] is reported as less than 20 nM and the IC50 [2, 6] is reported as less than 20 nM.
COc1nc(C)c(-c2ccn3nc(N)nc3c2)cc1C(=O)NCc1cc(F)ccc1C(=O)N1CCC(F)(F)C1 [Example 381, 5-(2-amino-[1,2,4]triazolo[1,5-a]pyridin-7-yl)-N-(2-(3,3-difluoropyrrolidine-1-carbonyl)-5-fluorobenzyl)-2-methoxy-6-methylnicotinamide] was tested, and the IC50 [1, 7] was less than 20 nM and the IC50 [2, 6] was less than 20 nM.
Work on Cc1nc(C)c(-c2ccn3nc(N)nc3c2)cc1C(=O)NCc1cc(OCC2CC2)ccc1F [Example 290, 5-(2-amino-[1,2,4]triazolo[1,5-a]pyridin-7-yl)-N-(5-(cyclopropylmethoxy)-2-fluorobenzyl)-2,6-dimethylnicotinamide] yielded an IC50 [1, 3] of 20 to 200 nM and an IC50 [2, 6] of less than 20 nM.
For COc1nc(C)c(-c2ccn3nc(N)nc3c2)cc1C(=O)NCc1ccccc1OC(F)(F)F [Example 211, 5-{2-amino-[1,2,4]triazolo[1,5-a]pyridin-7-yl}-2-methoxy-6-methyl-N-{[2-(trifluoromethoxy)phenyl]methyl}pyridine-3-carboxamide], the IC50 [1, 3] was 20 to 200 nM and the IC50 [2, 6] was less than 20 nM.
Work on Cc1ncc(-c2ccn3nc(N)nc3c2)cc1C(=O)NC(C)c1cccc(OC(F)(F)F)c1 (stereo not drawn) [Example 234, 5-{2-amino-[1,2,4]triazolo[1,5-a]pyridin-7-yl}-2-methyl-N-{1-[3-(trifluoromethoxy)phenyl]ethyl}pyridine-3-carboxamide] yielded an IC50 [1, 5] greater than 200 nM and an IC50 [2, 4] of 20 to 200 nM.
Cc1cnc(-c2ccn3nc(N)nc3c2)cc1C(=O)N[C@H](C)c1cc(OC(F)(F)F)ccc1F [Example 392, (R)-2-(2-amino-[1,2,4]triazolo[1,5-a]pyridin-7-yl)-N-(1-(2-fluoro-5-(trifluoromethoxy)phenyl)ethyl)-5-methylisonicotinamide] gave an IC50 [1, 3] of 20 to 200 nM and an IC50 [2, 6] of less than 20 nM.
Work on COc1ncc(-c2ccn3nc(N)nc3c2)cc1C(=O)NCc1cc(F)ccc1OC1CCCC1 [Example 142, 5-{2-amino-[1,2,4]triazolo[1,5-a]pyridin-7-yl}-N-{[2-(cyclopentyloxy)-5-fluorophenyl]methyl}-2-methoxypyridine-3-carboxamide] yielded an IC50 [1, 7] of less than 20 nM and an IC50 [2, 6] of less than 20 nM.
Compound CC(CCNC(=O)c1cc(-c2ccn3nc(N)nc3c2)cnc1N)c1ccccc1 (stereo not drawn) [Example 65, 2-Amino-5-{2-amino-[1,2,4]triazolo[1,5-a]pyridin-7-yl}-N-(3-phenylbutyl)pyridine-3-carboxamide] has an IC50 [1, 3] of 20 to 200 nM and an IC50 [2, 6] of less than 20 nM.
Work on Cc1cnc(C(=O)NCc2cc(OC(F)(F)F)ccc2F)cc1-c1ccn2nc(N)nc2c1 [Example 399, 4-(2-amino-[1,2,4]triazolo[1,5-a]pyridin-7-yl)-N-(2-fluoro-5-(trifluoromethoxy)benzyl)-5-methylpicolinamide] yielded an IC50 [1, 3] of 20 to 200 nM and an IC50 [2, 4] of 20 to 200 nM.
